Laboratory results reported in the NIST ThermoML archive (doi:10.1021/acs.jced.7b00297).

Tests used:
[1] = 298.15 K; 101.33 kPa; Liquid; Vibrating tube method
[2] = mn = molality of the nth substance listed, in mol/kg; conditions: 84.5 kPa, Liquid; for speed of sound: Single path-length method; for mass density: Vibrating tube method

CCCCCCn1cc[n+](C)c1.[Cl-] [1-hexyl-3-methylimidazolium chloride]
Conditions	mass density [kg/m3]
[1]	1042.86

CCCCn1cc[n+](C)c1.O=S(=O)([O-])C(F)(F)F [1-butyl-3-methylimidazolium trifluoromethanesulfonate]
Conditions	mass density [kg/m3]
[1]	1297.84

CCCCn1cc[n+](C)c1.[Cl-] [1-butyl-3-methylimidazolium chloride] + O
[2]
Conditions	mass density, 288.15 K [kg/m3]	mass density, 298.15 K [kg/m3]	mass density, 308.15 K [kg/m3]	mass density, 318.15 K [kg/m3]	speed of sound, 288.15 K [m/s]	speed of sound, 298.15 K [m/s]	speed of sound, 308.15 K [m/s]	speed of sound, 318.15 K [m/s]
m1 = 0.0344	999.577	997.479	994.434	990.589	1472	1501.5	1523.9	1540.1
m1 = 0.0526	999.828	997.71	994.648	990.791	1474.7	1504	1526.1	1542
m1 = 0.0926	1000.37	998.209	995.113	991.228	1480.8	1509.3	1530.8	1546.1
m1 = 0.1181	1000.72	998.524	995.403	991.504	1485	1513.1	1534	1548.9
m1 = 0.1806	1001.56	999.3	996.124	992.177	1493.8	1520.7	1540.7	1554.8
m1 = 0.2371	1002.33	999.998	996.773	992.785	1502.2	1528	1547.1	1560.5
m1 = 0.479	1005.59	1002.98	999.537	995.37	1535.7	1557.1	1572.5	1582.7
m1 = 0.7374	1009.02	1006.11	1002.43	998.079	1568.8	1586	1597.6	1604.5
